What was measured:
4T1 tumors = assay: Anti-tumor efficacy of Compound 1 with and without anti-PD-1 in the 4T1 murine mammary cancer model (Example 2A); assay type: in vivo, Mus musculus; settings: for Tumor volume (mm^3), Mean ± SEM: n = 8; for ILS (%) / MST: endpoint tumor volume 2000 mm^3; for RTV at day 25 / T/C (%) / TGI (%) / Tumor Size (mm^3) at day 25, Mean ± SEM: day 25
Description: Female BALB/c mice were inoculated subcutaneously at the mammary fat pat with 4T1 cells for tumor development. Six days after tumor inoculation, 48 mice with tumor size ranging from 49-88 mm^3 (average tumor size 59 mm^3) were selected and assigned into 6 groups using stratified randomization with 8 mice per group based upon their tumor volumes. The treatments were started from the day of randomization (defined as D0), Group 1 was treated with Vehicle (Tween 80:Ethanol:Saline—5:5:90 v/v/v), s.c. q.d.×14, Group 2 was treated with anti-PD-1 10 mg/kg i.p. q4d×4, Group 3 was treated with Compound 1 3 mg/kg s.c. q.d.×5D followed by 1 mg/kg s.c. q.d.×9D, Group 4 was treated with Compound 13 mg/kg s.c. q.d.×5D followed by 1 mg/kg s.c. q.d.×9D+anti-PD-1 10 mg/kg i.p. q4d×4, Group 5 was treated with Compound 11 mg/kg s.c. q.d.×14D and Group 6 was treated with Compound 11 mg/kg s.c. q.d.×14D+anti-PD-1 10 mg/kg i.p. q4d×4. The tumor sizes were measured three times per week during the treatment. The entire study was terminated on D42 after start of the treatment. In this study anti mPD-1 (catalog number BE0146) was used.
Animal Species: Mus musculus; Strain: BALB/c; Age: 6-8 weeks; Sex: female; Body weight (at treatment start): 20-24 g.
The 4T1 tumor cells were maintained in vitro as a monolayer culture in RPMI-1640 medium supplemented with 10% heat inactivated fetal bovine serum and 100 μg/mL penicillin streptomycin at 37° C. in an atmosphere of 5% CO2 in air. The tumor cells were routinely subcultured twice weekly by trypsin-EDTA treatment. The cells growing to a confluency around 70%-80% were harvested and counted for tumor inoculation. The cultured 4T1 cells were harvested, re-suspended in base medium at a density of 2×10^6 cells/mL with viability >90%. Each mouse was inoculated subcutaneously at the […] with 1×10^5 in 0.05 ml base medium for tumor development.
The treatments were started on day 6 after tumor inoculation when the tumor size reached 49-88 mm^3 (average tumor size 59 mm^3). Each group consisted of 8 tumor bearing mice. The testing article was administrated at the dosing volume indicated to the mice according to the predetermined regimen as shown Table 2A-1. Testing article formulations were prepared according to standard procedures. Details regarding tumor measurements and endpoints, and statistical analysis are provided in EXAMPLE 3.
Tumor sizes were measured three times a week in two dimensions using a caliper, and the volume expressed in mm^3 using the formula: V=0.5 a×b^2 where a and b are the long and short diameters of the tumor, respectively. The tumor sizes were then used for the calculations of both tumor growth inhibition (TGI) and T/C values.
TGI is calculated for each group using the formula: […]
TVTreatment_DayN is the average tumor volume of a treatment group on a given day, TVTreatment_Day0 is the average tumor volume of the treatment group on the first day of treatment, TVVehicle_DayN is the average tumor volume of the vehicle control group on a given day, and TVVehicle_Day0 is the average tumor volume of the vehicle group on the first day of treatment.
The T/C value (in percent) is an indication of antitumor effectiveness, T/C (%)=RTVTreatment/RTVControl×100% (RTVTreatment: the mean RTV of the treatment group; RTVControl: the mean RTV of the vehicle treated group). RTV (relative tumor volume)=TVDayN/TVDay0. TVDayN and TVDay0 is the tumor volume on day N and Day 0 respectively. T/C (%)≤42% is considered as significant antitumor activity and <10% is considered as highly significant antitumor activity by the National Cancer Institute criteria.
Animal survival curve: When an individual animal reached to the termination endpoint (TV>2000 mm^3), the mouse was euthanized. The time from treatment initiation to the termination was deemed as its survival time. Survival curve was plotted by Kaplan-Meier method. Median survival time (MST) was calculated for each group. […]

HCT116 tumors = assay: Anti-tumor efficacy of Compound 1 in the HCT116 xenograft model (Example 12); assay type: in vivo, mice
Description: Female BALB/c nude mice were inoculated subcutaneously in the right flank with HCT116 cells for tumor development. Nine days after tumor inoculation, mice with tumor sizes ranging from 90-260 mm^3 (average tumor size 155 mm^3) were selected and assigned into groups using stratified randomization with 8 mice per group based upon their tumor volumes. The treatments were started from the day of randomization (defined as D0), Group 1 was treated with Vehicle control, 10 ml/kg, IP, bid×21; Group 4 was treated with Compound 1, 1.4 mg/kg, SC, 5d ON, 2 d OFF×3 cycles; and Group 5 was treated with Compound 1, 3.3 mg/kg, IV, tiw, (Thu, Sat, Mon)×3 cycles. The tumor sizes were measured two times per week during the treatment. The entire study was terminated on D18 after start of the treatment. All treatments were well-tolerated without any adverse effects or significant body weight loss.

[1] = Group 4, 1.4 mg/kg SC 5 d ON 2 d OFF x3 cycles
[2] = Group 4, 1.4 mg/kg SC 5 d ON 2 d OFF x3 cycles, day 11
[3] = Group 5, 3.3 mg/kg IV tiw x3 cycles
[4] = Group 5, 3.3 mg/kg IV tiw x3 cycles, day 11

CC(=O)N[C@@H](Cc1c[nH]c2ccccc12)C(=O)N[C@@H](CCC(=O)C=[N+]=[N-])C(=O)OC(C)C [Compound 1, Isopropyl (S)-2-((S)-2-acetamido-3-(1H-indol-3-yl)propanamido)-6-diazo-5-oxohexanoate]
Tumor volume (mm^3), Mean ± SEM (4T1 tumors; 1 mg/kg qdx14 s.c., Day 0): 58 ± 3 mm^3 | Tumor volume (mm^3), Mean ± SEM (4T1 tumors; 1 mg/kg qdx14 s.c., Day 2): 75 ± 4 mm^3 | Tumor volume (mm^3), Mean ± SEM (4T1 tumors; 1 mg/kg qdx14 s.c., Day 4): 85 ± 4 mm^3 | Tumor volume (mm^3), Mean ± SEM (4T1 tumors; 1 mg/kg qdx14 s.c., Day 7): 108 ± 4 mm^3 | Tumor volume (mm^3), Mean ± SEM (4T1 tumors; 1 mg/kg qdx14 s.c., Day 9): 130 ± 10 mm^3 | Tumor volume (mm^3), Mean ± SEM (4T1 tumors; 1 mg/kg qdx14 s.c., Day 11): 158 ± 12 mm^3 | Tumor volume (mm^3), Mean ± SEM (4T1 tumors; 1 mg/kg qdx14 s.c., Day 14): 172 ± 11 mm^3 | Tumor volume (mm^3), Mean ± SEM (4T1 tumors; 1 mg/kg qdx14 s.c., Day 16): 215 ± 17 mm^3 | Tumor volume (mm^3), Mean ± SEM (4T1 tumors; 1 mg/kg qdx14 s.c., Day 18): 300 ± 23 mm^3 | Tumor volume (mm^3), Mean ± SEM (4T1 tumors; 1 mg/kg qdx14 s.c., Day 21): 441 ± 31 mm^3 | Tumor volume (mm^3), Mean ± SEM (4T1 tumors; 1 mg/kg qdx14 s.c., Day 23): 622 ± 44 mm^3 | Tumor volume (mm^3), Mean ± SEM (4T1 tumors; 1 mg/kg qdx14 s.c., Day 25): 782 ± 53 mm^3 | Tumor volume (mm^3), Mean ± SEM (4T1 tumors; 3 mg/kg qdx5 then 1 mg/kg qdx9 s.c., Day 0): 59 ± 3 mm^3 | Tumor volume (mm^3), Mean ± SEM (4T1 tumors; 3 mg/kg qdx5 then 1 mg/kg qdx9 s.c., Day 2): 72 ± 4 mm^3 | Tumor volume (mm^3), Mean ± SEM (4T1 tumors; 3 mg/kg qdx5 then 1 mg/kg qdx9 s.c., Day 4): 76 ± 3 mm^3 | Tumor volume (mm^3), Mean ± SEM (4T1 tumors; 3 mg/kg qdx5 then 1 mg/kg qdx9 s.c., Day 7): 80 ± 3 mm^3 | Tumor volume (mm^3), Mean ± SEM (4T1 tumors; 3 mg/kg qdx5 then 1 mg/kg qdx9 s.c., Day 9): 88 ± 6 mm^3 | Tumor volume (mm^3), Mean ± SEM (4T1 tumors; 3 mg/kg qdx5 then 1 mg/kg qdx9 s.c., Day 11): 113 ± 9 mm^3 | Tumor volume (mm^3), Mean ± SEM (4T1 tumors; 3 mg/kg qdx5 then 1 mg/kg qdx9 s.c., Day 14): 171 ± 12 mm^3 | Tumor volume (mm^3), Mean ± SEM (4T1 tumors; 3 mg/kg qdx5 then 1 mg/kg qdx9 s.c., Day 16): 245 ± 17 mm^3 | Tumor volume (mm^3), Mean ± SEM (4T1 tumors; 3 mg/kg qdx5 then 1 mg/kg qdx9 s.c., Day 18): 356 ± 27 mm^3 | Tumor volume (mm^3), Mean ± SEM (4T1 tumors; 3 mg/kg qdx5 then 1 mg/kg qdx9 s.c., Day 21): 565 ± 37 mm^3 | Tumor volume (mm^3), Mean ± SEM (4T1 tumors; 3 mg/kg qdx5 then 1 mg/kg qdx9 s.c., Day 23): 762 ± 62 mm^3 | Tumor volume (mm^3), Mean ± SEM (4T1 tumors; 3 mg/kg qdx5 then 1 mg/kg qdx9 s.c., Day 25): 1024 ± 75 mm^3 | ILS (%) (4T1 tumors; Compound 1 1 mg/kg): 13.8% | MST (4T1 tumors; Compound 1 1 mg/kg): 33.0 days | ILS (%) (4T1 tumors; Compound 1 3/1 mg/kg): 19.0% | MST (4T1 tumors; Compound 1 3/1 mg/kg): 34.5 days | RTV at day 25 (4T1 tumors; Cpd. 1 1 mg/kg): 13.65 ± 1.13 | T/C (%) (4T1 tumors; Cpd. 1 1 mg/kg): 46.10% | TGI (%) (4T1 tumors; Cpd. 1 1 mg/kg): 53.9% | Tumor Size (mm^3) at day 25, Mean ± SEM (4T1 tumors; Cpd. 1 1 mg/kg): 782 ± 53 mm^3 | RTV at day 25 (4T1 tumors; Cpd. 1 3/1 mg/kg): 17.45 ± 0.83 | T/C (%) (4T1 tumors; Cpd. 1 3/1 mg/kg): 58.95% | TGI (%) (4T1 tumors; Cpd. 1 3/1 mg/kg): 41.05% | Tumor Size (mm^3) at day 25, Mean ± SEM (4T1 tumors; Cpd. 1 3/1 mg/kg): 1024 ± 75 mm^3 | RTV at day 11 (HCT116 tumors; [1]): 4.061 ± 0.33 | Tumor Size at day 11 (HCT116 tumors; [1]): 602 ± 72 mm^3 | Tumor volume (HCT116 tumors; Group 4, 1.4 mg/kg SC 5 d ON 2 d OFF x3 cycles, day 0): 155 ± 19 mm^3 | Tumor volume (HCT116 tumors; Group 4, 1.4 mg/kg SC 5 d ON 2 d OFF x3 cycles, day 4): 227 ± 39 mm^3 | Tumor volume (HCT116 tumors; Group 4, 1.4 mg/kg SC 5 d ON 2 d OFF x3 cycles, day 7): 294 ± 53 mm^3 | T/C (HCT116 tumors; [2]): 52.25% | TGI (HCT116 tumors; [2]): 53.92% | Tumor volume (HCT116 tumors; [2]): 602 ± 72 mm^3 | Tumor volume (HCT116 tumors; Group 4, 1.4 mg/kg SC 5 d ON 2 d OFF x3 cycles, day 14): 964 ± 176 mm^3 | RTV at day 11 (HCT116 tumors; [3]): 3.70 ± 0.45 | Tumor Size at day 11 (HCT116 tumors; [3]): 571 ± 82 mm^3 | Tumor volume (HCT116 tumors; Group 5, 3.3 mg/kg IV tiw x3 cycles, day 0): 156 ± 19 mm^3 | Tumor volume (HCT116 tumors; Group 5, 3.3 mg/kg IV tiw x3 cycles, day 4): 188 ± 23 mm^3 | Tumor volume (HCT116 tumors; Group 5, 3.3 mg/kg IV tiw x3 cycles, day 7): 378 ± 60 mm^3 | T/C (HCT116 tumors; [4]): 48.17% | TGI (HCT116 tumors; [4]): 57.23% | Tumor volume (HCT116 tumors; [4]): 571 ± 82 mm^3 | Tumor volume (HCT116 tumors; Group 5, 3.3 mg/kg IV tiw x3 cycles, day 14): 861 ± 134 mm^3 | Tumor volume (HCT116 tumors; Group 5, 3.3 mg/kg IV tiw x3 cycles, day 18): 1354 ± 204 mm^3
